Data as given in patent publication US7871765B2, “Composition having antitumor effect” (priority 2004, dated 2011).

Legend:
[1] = tested on: MB49 cells; assay: MB49 cell-inoculated mouse model (intradermal), tumor volume; type: in vivo
Excerpt: This experimental model can be prepared in accordance with, for example, a method described in Anticancer Res., 2004, 24(4):2225-30, and the like.

[2] = tested on: MB49 (transitional epithelial cancer) cells; assay: Adriamycin sensitivity of MB49 cells, WST-8 assay; type: cell-based; conditions: 48 hours
Method: After 48 hours of cultivation, the supernatant was removed by WST-8 assay, 100 μl of a cell counting kit solution, previously diluted 10 fold with RPMI medium, was added, and the plate was allowed to stand at 37° C. for 1.5 hours. Absorbance at 450 nm was determined using a microplate reader. Assuming the absorbance of a sample of MB49 cells only to be 100% survival rate, the survival rates at various concentrations were calculated.

[3] = tested on: MB49 cells; assay: Concurrent administration of MB49 cells, HVJ-E and ADM into the bladder; type: in vivo, mouse; conditions: two weeks
Method: Three 6-week-old female C57BL/6Cr Slc mice per group were anesthetized by administering a mixture of 90 μl of ketamine (50 mg) and 10 μl of xylazine (2% solution) to the left femoral muscle, a 24G catheter was inserted into the bladder, 100 μl of each of the following sample solutions was administered using a 1-ml syringe, and the catheter was indwelled for 1 hour.
The groups established are as follows:
The number of MB49 cells administered was 5×10^6 cells. After adjustment to a final volume of 100 μl, each solution was administered into the bladder. Two weeks later, the bladder was extirpated, and sections were prepared and stained with HE.

[4] = tested on: CT-26 cells derived from mouse colon cancer; assay: Antitumor effect on transplanted CT-26 tumors in cancer-bearing mice (tumor volume, remission); type: in vivo; conditions: Study 1, 21 days after treatment, single dose; for mean tumor volume: mean of five animals, BLM 6.5 μg/tumor intratumoral, CDDP 0.2 mg/body i.p.
Method: CT-26 cells derived from mouse colon cancer (5×10^6 cells) were intradermally transplanted to the backs of 8-week-old male BALB/cAnNCrj mice to yield cancer-bearing mice. Five days after the transplantation, 0.2 mg/body Platocin Injection (cisplatin, CDDP) was intraperitoneally administered to animals wherein the tumor diameter (major diameter) had reached about 5 mm. Following this administration, HVJ-E containing or not containing an anticancer drug (bleomycin hydrochloride [BLM]: Nippon Kayaku Co., Ltd.) and the like were administered into the tumor in a single dose (on the day after administration of cisplatin) or in multiple doses (3 times: 1, 5, and 8 days after administration of cisplatin). Tumor diameters, survival curves, and immune reactions in the tumor tissue were evaluated.
(Study 1) The groups described below were established, and the antitumor effects of treatment for transplanted tumors was evaluated.
For modeling, (1) a control group, (2) an HVJ-E group, (3) a BLM-alone group, (4) an HVJ-E/BLM group, (5) a CDDP-alone group, and (6) a CDDP HVJ-E/BLM single dosing group were established; tumor volumes were measured 21 days after each treatment, and the influence on the antitumor effect was examined.
(Study 2) In an attempt to further enhance the antitumor effect of the (single) treatment by single dosing of CDDP HVJ-E/BLM given in Study 1, HVJ-E/BLM was administered in multiple doses (3 times) (Study 2-1). […] (Study 2-1)
Tumor volumes were examined 21 days after treatment for (1) a control group, (2) a CDDP HVJ-E/BLM single dosing group (single treatment), and (3) a CDDP HVJ-E/BLM 3 dosing group.
After completion of the quarantine and habituation, animals were shaven with clippers. The tumor cell suspension at 100 μL/site (5×10^6 cells/body) was administered intradermally to the backs of 59 mice using a disposable syringe and injection needle (26 G). On the day following the administration, the same administration was performed on 57 animals (non-recipient animals).
Tumor diameters (major diameter, minor diameter) were measured 5 days after transplantation (not measured after grouping). Five days later, animals having a tumor diameter (major diameter) of about 5 mm were grouped by stratified randomization to obtain a nearly uniform distribution of mean tumor diameters (major diameters).
For the CDDP administration group, a single-dose intraperitoneal administration (1000 μl) was performed using a disposable injection syringe and injection needle. […]
The day of administration was taken as Day 0 after administration. On Days 3, 6, 9, 12, 15, 18, and 21 after administration, all animals had their tumor diameters measured, and tumor volume (major diameter×minor diameter×minor diameter÷2) was calculated.

[5] = tested on: CT-26 cells; assay: CTL assay using radiolabeled chromium with splenocytes of treated mice; type: cell-based, mouse; conditions: E/T ratio 80; CT-26 inoculated mice; HVJ-E/BLM 3 dosing where given
Method: To determine whether or not the antitumor immunity effect observed in the previous study was due to the induction of CT26 cell-specific antitumor immunity, splenocytes recovered from animals were stimulated with CT26 cells, and a CTL assay using radiolabeled chromium was performed to determine whether or not CT26-specific antitumor immunity had been induced.
In this study, (1) a CT-26 cell non-inoculation group, (2) a CT-26 cell-alone inoculation group, (3) a CT-26 cell inoculation+CDDP administration group, and (4) a CT-26 cell inoculation+CDDP+HVJ-E/BLM 3 dosing group were established and tested.
The spleen was extirpated from each anesthetized animal and recovered in a Petri dish (6 cm in diameter) containing 3 ml of RPMI solution. The spleen tissue was squashed between the frosted portions of two sterile glass slides, splenocytes were separated from the coat to the maximum possible extent, and the debris was removed through meshes. After 7 ml of PRMI solution was added, the cells were centrifuged at 1200 rpm for 10 minutes, and the supernatant was removed. […] The cells obtained from this operation were counted. […]
Actual CTL assay was performed with the ratio of effector cells (E) and target cells (T), E/T ratio, set at 80, […] 40, 20, 10, and 5. In this operation, 100 μl of target cells (1×10^5 cells/ml) were added to make a total quantity of 200 μl. […]

[6] = tested on: CT-26 tumor tissue; assay: HE and CD-4/CD-8 immunohistological staining of tumor tissue; type: in vivo, mouse; conditions: 9 days after CDDP administration; single dosing
Excerpt: (Study 5) To evaluate the infiltration of CD-4, CD-8, neutrophils, macrophage and the like in the tumor tissues examined in the study of the antitumor effect of the antitumor immunity, the following test groups were established, and tumor tissues were extirpated 9 days after administration of CDDP and subjected to immunohistological staining.
2-9) The tumor tissue was frozen in liquid nitrogen in preparation for staining the tumor tissue. The tumor tissue was cut into sections 8 μm in thickness using a cryostat. The tissue sections were fixed in −20° C. cold acetone for 15 minutes. After the sections were washed with water, endogenous avidin-biotin blocking was performed, and the sections were washed with water. The sample was reacted with normal rabbit serum and 50-fold diluted primary antibody [anti-mouse CD8a rat antibody (Ly-Z; Pharmingen) or anti-mouse CD4a rat antibody (L3T4; Pharmingen)] at 4° C. overnight. After the sample was washed with 7.5 mM Tris buffer solution (pH 7.5), it was reacted with 300-fold diluted anti-rat biotin-labeled rabbit Ig (DAKO) for 30 minutes. After the sample was washed with 9.5 mM Tris buffer solution (pH 7.5), it was reacted with 100-fold diluted streptoavidin for 30 minutes. After the sample was washed with 11.5 mM Tris buffer solution (pH 7.5), a color was developed with Fast Red. […]

[7] = tested on: CT-26 mouse colon cancer cells; assay: Antitumor effect of cisplatin (CDDP) and HVJ-E in combination, CT-26 tumors; type: in vivo; conditions: HVJ-E alone, CDDP 1 mg/kg, physiological saline
Method: CT-26 mouse colon cancer cells were intradermally inoculated into the backs of BALB/c mice at 5×10^6 cells/head. Five days after the inoculation, treatment with HVJ-E and CDDP was started in the following animal groups. For each animal group, tumor volume was calculated as major diameter×minor diameter×minor diameter/2.
• #1: Physiological saline group • #2: HVJ-E alone • #3: CDDP 1 mg/kg • #4: CDDP 3 mg/kg • #5: CDDP 1 mg/kg+HVJ-E (5,000 HAU) • #6: CDDP 3 mg/kg+HVJ-E (5,000 HAU) • (n=5 or 6 for each group) (Results)

## COc1cccc2c1C(=O)c1c(O)c3c(c(O)c1C2=O)C[C@@](O)(C(=O)CO)C[C@@H]3O[C@H]1C[C@H](N)[C@H](O)[C@H](C)O1 [ADM, adriamycin]
[1]; ADM alone (20 or 100 μg)
  tumor suppressing effect: a tumor suppressing effect was observed
[1]; ADM alone (20 or 100 μg), tumor diameter 7-8 mm
  tumor eradication: eradication was not observed
[1]; G2: ADM 20 μg x3 into tumor, Day 0
  tumor volume: 128.4 mm^3
[1]; G2: ADM 20 μg x3 into tumor, Day 5
  tumor volume: 303.2 mm^3
[1]; G2: ADM 20 μg x3 into tumor, Day 7
  tumor volume: 330 mm^3
[1]; G2: ADM 20 μg x3 into tumor, Day 9
  tumor volume: 324.9 mm^3
[1]; G2: ADM 20 μg x3 into tumor, Day 12
  tumor volume: 331.74 mm^3
[1]; G2: ADM 20 μg x3 into tumor, Day 15
  tumor volume: 443.36 mm^3
[1]; G2: ADM 20 μg x3 into tumor, Day 19
  tumor volume: 773.88 mm^3
[1]; G2: ADM 20 μg x3 into tumor, Day 21
  tumor volume: 1022.48 mm^3
[1]; G3: ADM 100 μg x3 into tumor, Day 0
  tumor volume: 119 mm^3
[1]; G3: ADM 100 μg x3 into tumor, Day 5
  tumor volume: 285.8 mm^3
[1]; G3: ADM 100 μg x3 into tumor, Day 7
  tumor volume: 291.2 mm^3
[1]; G3: ADM 100 μg x3 into tumor, Day 9
  tumor volume: 333.9 mm^3
[1]; G3: ADM 100 μg x3 into tumor, Day 12
  tumor volume: 426.88 mm^3
[1]; G3: ADM 100 μg x3 into tumor, Day 15
  tumor volume: 450.76 mm^3
[1]; G3: ADM 100 μg x3 into tumor, Day 19
  tumor volume: 989.52 mm^3
[1]; G3: ADM 100 μg x3 into tumor, Day 21
  tumor volume: 1220.44 mm^3
[2]; ADM 0.004 μg/ml
  survival rate: 60.1%
[2]; ADM 0.008 μg/ml
  survival rate: 54%
[2]; ADM 0.063 μg/ml
  survival rate: 34.9%
[2]; ADM 0.125 μg/ml
  survival rate: 27.6%
[2]; ADM 0.25 μg/ml
  survival rate: 22.6%
[2]; ADM 0.5 μg/ml
  survival rate: 17.2%
[2]; ADM 1 μg/ml
  survival rate: 11.7%
[2]; ADM 2 μg/ml
  survival rate: 6.7%
[2]; MB49 cells, WST-8
  LD50 concentration: 0.008 µg/mL
  LD90 concentration: 1 µg/mL
[3]; ADM 0.008 μg/ml, with or without HVJ-E 5000 HAU (Groups 1, 2)
  infiltration of MB49 cells into the bladder: all animals showed evidence of infiltration of MB49 cells
[3]; Group 3: ADM 1 μg/ml
  animals in which infiltration of MB49 cells could not be prevented: 80%

## [NH2][Pt]([NH2])([Cl])[Cl] [CDDP, cisplatin]
[4]
  mean tumor volume: 387 mm^3
  mean tumor volume relative to control group as 100%: 23.2%
[5]
  % specific Cr release: 12.9%
[6]
  pathological findings in tumor tissue (HE staining): tumor cell necrotic signs were observed over a wide range of the tumor tissue
[7]; cell-derived HVJ-E study
  order of regression effect: greater in the order of the physiological saline group, HVJ-E-alone administration group, and CDDP 1 mg/kg administration group
[7]; egg-derived HVJ-E study
  tumor volume compared among groups: no major difference was observed

## bleomycin hydrochloride [BLM]
[4]
  mean tumor volume: 1303 mm^3
  mean tumor volume relative to control group as 100%: 80.0%
[6]
  pathological findings in tumor tissue (HE staining): Generally similar findings
